Reference: patent publication US9896445B2, “Heterocyclic inhibitors of ERK1 and ERK2 and their use in the treatment of cancer” (Asana Biosciences, LLC, priority 2015, dated 2018)

Legend:
ERK2 = molecular target: T1, ERK2 (Homo sapiens, UniProt P28482); experiment: ERK2 HTRF (biochemical) assay
T1 construct: purchased Jubilant Biosys
Outline: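 Compounds were tested as half-log dilutions from 0.0005 to 10 uM in Tris pH 7.5/MgCl2 buffer, with a substrate mix of 1 uM biotin-MBP peptide and 24 uM ATP and an enzyme mix of 25 nM ERK2. Reaction ran 60 min at room temperature. Phospho-MBP was detected by HTRF (Eu-anti-phospho-MBP/SA-APC, 665/620 nm), and IC50 was fitted with a variable-slope sigmoidal curve.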

ERK1 = molecular target: T2, ERK1 (Homo sapiens, UniProt P27361); experiment: ERK1 HTRF (biochemical) assay
T2 construct: purchased Jubilant Biosys
T2 sequence (P27361 whole entry): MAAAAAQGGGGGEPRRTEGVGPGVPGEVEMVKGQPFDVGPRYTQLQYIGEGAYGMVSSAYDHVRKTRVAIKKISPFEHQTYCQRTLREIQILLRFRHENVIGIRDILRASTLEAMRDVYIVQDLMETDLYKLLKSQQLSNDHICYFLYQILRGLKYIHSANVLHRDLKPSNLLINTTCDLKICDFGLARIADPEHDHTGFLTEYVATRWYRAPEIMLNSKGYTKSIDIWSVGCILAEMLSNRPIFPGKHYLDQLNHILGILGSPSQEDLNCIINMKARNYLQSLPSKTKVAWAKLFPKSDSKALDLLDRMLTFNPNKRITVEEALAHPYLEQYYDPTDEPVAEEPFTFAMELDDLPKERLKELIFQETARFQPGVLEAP
Procedure: ERK1 and ERK2 HTRF (Biochemical) Assays
These assays employed a homogeneous time resolved fluorescence (HTRF) technique. […] The plate was incubated at room temperature for 60 min with shaking. […] The IC50 values (half maximal inhibitory concentration values) were subsequently determined using a sigmoidal dose-response curve (variable slope) in GraphPad Prism® 5 software.

T1 sequence (P28482 whole entry): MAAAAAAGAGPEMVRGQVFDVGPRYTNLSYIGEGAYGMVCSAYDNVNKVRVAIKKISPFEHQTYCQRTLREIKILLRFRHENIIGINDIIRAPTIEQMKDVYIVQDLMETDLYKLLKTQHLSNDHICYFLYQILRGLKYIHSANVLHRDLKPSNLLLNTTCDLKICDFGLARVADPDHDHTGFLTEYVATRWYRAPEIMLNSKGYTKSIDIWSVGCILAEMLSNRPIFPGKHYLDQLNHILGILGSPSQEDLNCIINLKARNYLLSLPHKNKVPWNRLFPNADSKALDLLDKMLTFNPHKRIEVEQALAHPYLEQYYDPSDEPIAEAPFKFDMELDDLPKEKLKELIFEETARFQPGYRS

SMILES | IC50 (ERK2; HTRF) | IC50 (ERK1; HTRF) | IC50 (ERK2; HTRF biochemical assay) | IC50 (ERK1; HTRF biochemical assay)
Cc1cnc(NC2CCCCC2O)nc1-n1ccc(C(=O)NC(CO)c2ccc(F)c(Cl)c2)c1 (centres unmarked) [Compound 202, N-(1-(3-chloro-4-fluorophenyl)-2-hydroxyethyl)-1-(2-((2-hydroxy-cyclohexyl)amino)-5-methylpyrimidin-4-yl)-1H-pyrrole-3-carboxamide] | 50 to 100 nM | 50 to 100 nM | – | –
Cc1cnc(NC2CCOCC2)nc1-n1cnc(C(=O)NCc2nccs2)c1 [Example 281, 1-(5-methyl-2-((tetrahydro-2H-pyran-4-yl)amino)-pyrimidin-4-yl)-N-(thiazol-2-ylmethyl)-1H-imidazole-4-carboxamide] | ≤ 50 nM | < 50 nM | – | –
Cc1cnc(NC2CCOC2)nc1-n1ccc(C(=O)NC(CO)c2ccccc2)c1 (centres unmarked) [Compound 128, N-(2-hydroxy-1-phenylethyl)-1-(5-methyl-2-((tetrahydrofuran-3-yl)amino)pyrimidin-4-yl)-1H-pyrrole-3-carboxamide] | ≤ 50 nM | < 50 nM | – | –
Cc1cnc(N[C@@H]2CCOC2)nc1-n1cnc(C(=O)NCc2cccc(Cl)c2CO)c1 [Example 344, (R)-N-(3-chloro-2-(hydroxymethyl)-benzyl)-1-(5-methyl-2-((tetrahydrofuran-3-yl)amino)-pyrimidin-4-yl)-1H-imidazole-4-carboxamide] | – | – | ≤ 50 nM | < 50 nM
Cc1cnc(Nc2ccc3c(c2)OCCC3)nc1-n1ccc(C(=O)NC(CO)c2ccccc2)c1 (centres unmarked) [Compound 186, 1-(2-(chroman-7-ylamino)-5-methyl-pyrimidin-4-yl)-N-(2-hydroxy-1-phenylethyl)-1H-pyrrole-3-carboxamide] | ≤ 50 nM | < 50 nM | – | –
Cc1cccc([C@@H](CO)NC(=O)c2ccn(-c3nc(N[C@H]4CCOC4)ncc3C)c2)n1 [Compound 207, N-((S)-2-hydroxy-1-(6-methylpyridin-2-yl)ethyl)-1-(5-methyl-2-(((S)-tetrahydrofuran-3-yl)amino)pyrimidin-4-yl)-1H-pyrrole-3-carboxamide] | ≤ 50 nM | < 50 nM | – | –
O=C(NC(CO)c1cccc(Cl)c1)c1cn(-c2ccnc(Nc3ccc4c(c3)CCO4)c2)cn1 (centres unmarked) [Compound 163, N-(1-(3-chlorophenyl)-2-hydroxyethyl)-1-(2-((2,3-dihydrobenzofuran-5-yl)amino)pyridin-4-yl)-1H-imidazole-4-carboxamide] | ≤ 50 nM | < 50 nM | – | –
Cc1cnc(NC2CCOCC2)nc1-n1cnc(C(=O)N[C@@H](CN)c2cc(F)cc(Cl)c2)c1 [Example 276, (R)-N-(2-amino-1-(3-chloro-5-fluoro-phenyl)ethyl)-1-(5-methyl-2-((tetrahydro-2H-pyran-4-yl)amino)-pyrimidin-4-yl)-1H-imidazole-4-carboxamide] | ≤ 50 nM | < 50 nM | – | –
Cc1cnc(NC2CCOCC2)nc1-n1cnc(C(=O)NC(CN)c2ccc(Cl)s2)c1 (single isomer, unassigned; enantiomer #2) [Example 291, N-(2-amino-1-(5-chlorothiophen-2-yl)ethyl)-1-(5-methyl-2-((tetrahydro-2H-pyran-4-yl)amino)-pyrimidin-4-yl)-1H-imidazole-4-carboxamide (enantiomer #2)] | ≤ 50 nM | < 50 nM | – | –
Cc1cnc(NC2CCOCC2)nc1-n1cnc(C(=O)NCc2cccc(Cl)c2CCO)c1 [Example 334, N-(3-chloro-2-hydroxyethylbenzyl)-1-(5-methyl-2-((tetrahydro-2H-pyran-4-yl)amino)-pyrimidin-4-yl)-1H-imidazole-4-carboxamide] | – | – | ≤ 50 nM | < 50 nM
Cc1cnc(N[C@H]2CCOC2)nc1-n1cnc(C(=O)NCc2cccc(C(F)(F)F)c2)c1 [Example 311, (S)-1-(5-methyl-2-((tetrahydrofuran-3-yl)amino)-pyrimidin-4-yl)-N-(3-(trifluoro-methyl)benzyl)-1H-imidazole-4-carboxamide] | – | – | ≤ 50 nM | 50 to 100 nM
Cc1cnc(Nc2ccc(F)cc2)cc1-n1cnc(C(=O)NC(CO)c2ccccc2)c1 (centres unmarked) [Compound 222, 1-(2-((4-fluorophenyl)amino)-5-methylpyridin-4-yl)-N-(2-hydroxy-1-phenylethyl)-1H-imidazole-4-carboxamide] | 50 to 100 nM | 100 to 500 nM | – | –
Cc1cnc(NC2CCOCC2)nc1-n1cnc(C(=O)NCc2ccc(Cl)c(CO)c2)c1 [Example 330, N-(4-chloro-3-(hydroxymethyl)-benzyl)-1-(5-methyl-2-((tetrahydro-2H-pyran-4-yl)amino)-pyrimidin-4-yl)-1H-imidazole-4-carboxamide] | – | – | ≤ 50 nM | < 50 nM
Cc1cnc(Nc2ccc3c(c2)OCO3)nc1-n1cc(C(=O)NC(CO)c2cccc(Cl)c2)cn1 (centres unmarked) [Compound 41, 1-(2-(benzo[d][1,3]dioxol-5-ylamino)-5-methylpyrimidin-4-yl)-N-(1-(3-chloro-phenyl)-2-hydroxy-ethyl)-1H-pyrazole-4-carboxamide] | ≤ 50 nM | 100 to 500 nM | – | –
Cc1cnc(NC2CCOCC2)nc1-n1cnc(C(=O)NCc2cccc(Cl)n2)c1 [Example 307, N-((6-chloro-pyridin-2-yl)methyl)-1-(5-methyl-2-((tetrahydro-2H-pyran-4-yl)amino)-pyrimidin-4-yl)-1H-imidazole-4-carboxamide] | ≤ 50 nM | < 50 nM | – | –
O=C(NC(CO)c1cccc(Cl)c1)c1cn(-c2cc(Nc3ccccc3)ncc2Cl)cn1 (centres unmarked) [Compound 106, 1-(5-Chloro-2-(phenylamino)pyridin-4-yl)-N-(1-(3-chlorophenyl)-2-hydroxyethyl)-1H-imidazole-4-carboxamide] | ≤ 50 nM | < 50 nM | – | –
Cc1cnc(Nc2ccc(F)cc2Cl)nc1-n1ccc(C(=O)NC(CO)c2cccc(Cl)c2)c1 (centres unmarked) [Compound 31, 1-(2-((2-chloro-4-fluorophenyl)amino)-5-methyl-pyrimidin-4-yl)-N-(1-(3-chlorophenyl)-2-hydroxyethyl)-1H-pyrrole-3-carboxamide] | ≤ 50 nM | < 50 nM | – | –
Cc1cnc(Nc2ccc(F)cc2)cc1-n1cnc(C(=O)NC(CN)c2ccccc2)c1 (single isomer, unassigned) [Compound 228, N-(2-amino-1-phenylethyl)-1-(2-((4-fluorophenyl)-amino)-5-methyl-pyridin-4-yl)-1H-imidazole-4-carboxamide] | 100 to 500 nM | 100 to 500 nM | – | –
Cc1cnc(NC2CCOCC2)nc1-n1cnc(C(=O)N[C@H](CO)c2cc(F)cc(Cl)c2)c1 [Example 295, (S)-N-(1-(3-chloro-5-fluorophenyl)-2-hydroxyethyl)-1-(5-methyl-2-((tetrahydro-2H-pyran-4-yl)amino)-pyrimidin-4-yl)-1H-imidazole-4-carboxamide] | ≤ 50 nM | < 50 nM | – | –
Cc1cnc(Nc2ccc(F)cc2Cl)cc1-n1ccc(C(=O)NC(CO)c2cccc(Cl)c2)c1 (centres unmarked) [Compound 91, 1-(2-((2-chloro-4-fluorophenyl)amino)-5-methylpyridin-4-yl)-N-(1-(3-chlorophenyl)-2-hydroxyethyl)-1H-pyrrole-3-carboxamide] | ≤ 50 nM | < 50 nM | – | –
O=C(N[C@H](CO)c1cccc(Cl)c1)c1cn(-c2ccnc(NC3CC3)c2)cn1 [Compound 116, (S)-N-(1-(3-chlorophenyl)-2-hydroxyethyl)-1-(2-(cyclopropylamino)pyridin-4-yl)-1H-imidazole-4-carboxamide] | ≤ 50 nM | < 50 nM | – | –
Cc1cnc(NC2CCOCC2)nc1-n1cnc(C(=O)NCc2ccccc2CN)c1 [Example 283, N-(2-(amino-methyl)benzyl)-1-(5-methyl-2-((tetrahydro-2H-pyran-4-yl)amino)-pyrimidin-4-yl)-1H-imidazole-4-carbox amide] | ≤ 50 nM | < 50 nM | – | –
O=C(NC(CO)c1cccc(Cl)c1)c1ccn(-c2ccnc(NC3CCNC3)c2)c1 (centres unmarked) [Compound 145, N-(1-(3-chloro-phenyl)-2-hydroxy-ethyl)-1-(2-(pyrrolidin-3-ylamino)pyridin-4-yl)-1H-pyrrole-3-carboxamide] | 500 to 2500 nM | > 2500 nM | – | –
Cc1cnc(Nc2ccc(F)cc2Cl)nc1-n1cc(NC(=O)NC(CO)c2cccc(Cl)c2)cn1 (centres unmarked) [Compound 36, 1-(1-(2-((2-chloro-4-fluorophenyl)-amino)-5-methyl-pyrimidin-4-yl)-1H-pyrazol-4-yl)-3-(1-(3-chlorophenyl)-2-hydroxyethyl)urea] | ≤ 50 nM | 100 to 500 nM | – | –
Cc1cnc(Nc2ccc3c(c2)OCO3)nc1-n1ccc(C(=O)N[C@H](CO)c2ccc(F)c(Cl)c2)c1 [Compound 87] | ≤ 50 nM | < 50 nM | – | –
Cc1cnc(NC2CCOCC2)nc1-n1cnc(C(=O)NCc2sccc2CN)c1 [Example 294, N-((3-(amino-methyl)thiophen-2-yl)methyl)-1-(5-methyl-2-((tetrahydro-2H-pyran-4-yl)amino)-pyrimidin-4-yl)-1H-imidazole-4-carboxamide] | ≤ 50 nM | < 50 nM | – | –
Cc1cnc(NC2CCOCC2)nc1-n1cnc(C(=O)NC(CN)c2ccc(Cl)s2)c1 (single isomer, unassigned; enantiomer #1) [Example 290, N-(2-amino-1-(5-chlorothiophen-2-yl)ethyl)-1-(5-methyl-2-((tetrahydro-2H-pyran-4-yl)amino)-pyrimidin-4-yl)-1H-imidazole-4-carboxamide (enantiomer #1)] | ≤ 50 nM | < 50 nM | – | –
O=C(NC(CO)c1cccc(Cl)c1)c1ccn(-c2ccnc(Nc3ccc4c(c3)OC(F)(F)O4)n2)c1 (centres unmarked) [Compound 176, N-(1-(3-chloro-phenyl)-2-hydroxyethyl)-1-(2-((2,2-difluoro-benzo[d][1,3]dioxol-5-yl)amino)-pyrimidin-4-yl)-1H-pyrrole-3-carboxamide] | ≤ 50 nM | < 50 nM | – | –
